Source: article PMC12775434, “Ultra-large virtual screening unveils potent agonists of the neuromodulatory orphan receptor GPR139” (Nature Communications, 2025)
“And” between values parts separate entries of the source, which are not always exact repeats. Equal values may be shown once.

Columns and labels:
Assay type in all cases: cell-based
[1] = molecular target: T1, GPR139 (Homo sapiens, UniProt Q6DWJ6); experiment: Ca2+ mobilization assay, agonist mode, stable GPR139-CHOk1 cell line; conditions: for EC50 / Emax: Supplementary Table 2, mean ± SEM; for EC50: read-out: pEC50 Ca2+ (converted); for Emax: normalized to Lundbeck Cmp 1a, read-out: Emax (%) Ca2+
T1 sequence (Q6DWJ6 1-353): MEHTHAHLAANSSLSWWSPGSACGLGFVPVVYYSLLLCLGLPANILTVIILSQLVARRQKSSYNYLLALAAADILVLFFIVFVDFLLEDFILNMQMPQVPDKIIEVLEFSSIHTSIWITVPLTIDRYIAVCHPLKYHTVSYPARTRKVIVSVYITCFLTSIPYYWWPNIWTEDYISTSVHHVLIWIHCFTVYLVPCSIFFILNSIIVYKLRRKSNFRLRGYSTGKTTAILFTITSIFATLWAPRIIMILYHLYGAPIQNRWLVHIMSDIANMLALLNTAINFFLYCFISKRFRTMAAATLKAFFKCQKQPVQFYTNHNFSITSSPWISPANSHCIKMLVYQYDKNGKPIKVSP
Method in brief: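 Agonist activity of compounds is assessed in stably transfected CHO-K1 cells using the calcium dye Fluo-4 at 37 °C in HEPES-buffered HBSS (pH 7.4). Efficacy is expressed relative to the reference agonist Lundbeck Cmp 1a, set as 100%.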

[2] = molecular target: T2, human muscarinic acetylcholine M1 receptor (M1R) (Homo sapiens, UniProt P11229); experiment: Ca2+ mobilization counter-screen in M1R-CHOk1 cells
T2 sequence (P11229 1-460): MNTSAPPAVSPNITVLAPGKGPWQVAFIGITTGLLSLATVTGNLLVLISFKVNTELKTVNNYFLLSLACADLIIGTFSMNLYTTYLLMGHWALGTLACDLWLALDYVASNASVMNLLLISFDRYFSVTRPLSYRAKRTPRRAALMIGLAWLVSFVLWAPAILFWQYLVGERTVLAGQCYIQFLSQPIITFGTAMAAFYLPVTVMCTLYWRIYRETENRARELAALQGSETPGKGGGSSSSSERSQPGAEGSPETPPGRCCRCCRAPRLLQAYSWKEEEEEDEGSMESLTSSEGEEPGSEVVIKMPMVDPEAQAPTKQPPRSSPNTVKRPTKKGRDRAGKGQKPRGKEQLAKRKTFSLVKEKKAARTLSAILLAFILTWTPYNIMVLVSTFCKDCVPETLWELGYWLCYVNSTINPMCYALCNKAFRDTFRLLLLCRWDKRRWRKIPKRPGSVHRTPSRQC
Method in brief: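 M1R-CHOk1 cells seeded 20–24 h, loaded with 2 µM Fluo-4 AM (2.5 mM probenecid, 0.01% Pluronic F-68) for 1 h at 37 °C in HBSS/20 mM HEPES pH 7.4. Compounds added after baseline (≤0.3% DMSO); calcium fluorescence read at 37 °C, ex 485/em 525 nm.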

[3] = molecular target: T1, GPR139; experiment: Ca2+ mobilization assay, antagonist mode (EC80 800 nM Lundbeck Cmp 1a after 20 min preincubation), GPR139-CHOk1
Method in brief: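 Fluo-4-loaded GPR139-CHOk1 cells in HEPES-buffered HBSS (pH 7.4, 2.5 mM probenecid) given test compounds at 10 µM, then after 20 min challenged with 800 nM Lundbeck Cmp 1a (EC80). Calcium fluorescence read at 37 °C, 485/525 nm.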

[4] = Agonist mode, individual replicates (Supplementary Figure 4)
[5] = log [Compound] M = -4.5, individual replicate columns
[6] = log [Compound] M = -5.0, individual replicate columns
[7] = log [Compound] M = -5.5, individual replicate columns
[8] = log [Compound] M = -6.0, individual replicate columns
[9] = log [Compound] M = -6.5, individual replicate columns
[10] = log [Compound] M = -7.0, individual replicate columns
[11] = log [Compound] M = -7.5, individual replicate columns
[12] = log [Compound] M = -8.0, individual replicate columns
[13] = log [Compound] M = -8.5, individual replicate columns
[14] = log [Compound] M = -9.0, individual replicate columns
[15] = individual replicates (Supplementary Figure 5)
[16] = individual replicates (Supplementary Figure 4)

Row | EC50 [1] | Emax [1] | SMILES | Ca2+ signal (% of Cmp 1a) [1, 4] | Ca2+ signal (% of Cmp 1a) [1, 5] | Ca2+ signal (% of Cmp 1a) [1, 6] | Ca2+ signal (% of Cmp 1a) [1, 7] | Ca2+ signal (% of Cmp 1a) [1, 8] | Ca2+ signal (% of Cmp 1a) [1, 9] | Ca2+ signal (% of Cmp 1a) [1, 10] | Ca2+ signal (% of Cmp 1a) [1, 11] | Ca2+ signal (% of Cmp 1a) [1, 12] | Ca2+ signal (% of Cmp 1a) [1, 13] | Ca2+ signal (% of Cmp 1a) [1, 14] | Ca2+ signal (% of Carbachol) [2, 15] | Ca2+ signal (% of Cmp 1a) [3, 16] | also measured
1 | 398 nM | 93 ± 4% | CCc1ccc(-c2nc(CC(=O)NC(C)c3ccccc3)no2)s1 (stereo not drawn) [Compound 1.12, CCC1=CC=C(C2=NC(CC(NC(C3=CC=CC=C3)C)=O)=NO2)S1] | 86 % of Cmp 1a and 84 % of Cmp 1a and 95 % of Cmp 1a | 90 % of Cmp 1a and 89 % of Cmp 1a and 81 % of Cmp 1a and 78 % of Cmp 1a | 105 % of Cmp 1a and 80 % of Cmp 1a and 63 % of Cmp 1a and 94 % of Cmp 1a | 111 % of Cmp 1a (2×) and 80 % of Cmp 1a and 55 % of Cmp 1a | 66 % of Cmp 1a and 61 % of Cmp 1a and 43 % of Cmp 1a and 78 % of Cmp 1a | 49 % of Cmp 1a and 48 % of Cmp 1a and 28 % of Cmp 1a and 56 % of Cmp 1a | 21 % of Cmp 1a and 33 % of Cmp 1a and 9 % of Cmp 1a and 38 % of Cmp 1a | 6 % of Cmp 1a and 10 % of Cmp 1a and 3.55 % of Cmp 1a and 24 % of Cmp 1a | -0.628 % of Cmp 1a and 0.281 % of Cmp 1a and 16 % of Cmp 1a and 5 % of Cmp 1a | -1.24 % of Cmp 1a and 1.81 % of Cmp 1a and 5 % of Cmp 1a and 9 % of Cmp 1a | 6.67 % of Cmp 1a and -5 % of Cmp 1a and 1.66 % of Cmp 1a and 6 % of Cmp 1a | 8 % of Carbachol and 5.44 % of Carbachol and 4 % of Carbachol | 15 % of Cmp 1a and 8 % of Cmp 1a and -3.33 % of Cmp 1a | change in potency with larger substituents on the thiophene ring ([1]; Ca2+ mobilization): three-fold reduction to a complete loss of activity
2 | 1580 nM | 91 ± 4% | Cc1cncc(-c2nc(CC(=O)NC(C)c3ccccc3)no2)c1 (stereo not drawn) [Compound 1.24, CC(C1=CC=CC=C1)NC(CC2=NOC(C3=CC(C)=CN=C3)=N2)=O] | 83 % of Cmp 1a and 52 % of Cmp 1a and 78 % of Cmp 1a | 103 % of Cmp 1a and 95 % of Cmp 1a and 70 % of Cmp 1a and 88 % of Cmp 1a and 90 % of Cmp 1a | 68 % of Cmp 1a and 86 % of Cmp 1a and 73 % of Cmp 1a and 72 % of Cmp 1a and 97 % of Cmp 1a | 50 % of Cmp 1a and 66 % of Cmp 1a and 58 % of Cmp 1a and 47 % of Cmp 1a and 97 % of Cmp 1a | 24 % of Cmp 1a and 41 % of Cmp 1a and 39 % of Cmp 1a and 38 % of Cmp 1a and 62 % of Cmp 1a | 1.31 % of Cmp 1a and 19 % of Cmp 1a and 31 % of Cmp 1a and 8.44 % of Cmp 1a and 34 % of Cmp 1a | 2.29 % of Cmp 1a and 0.399 % of Cmp 1a and 4 % of Cmp 1a and 2 % of Cmp 1a and 17 % of Cmp 1a | -0.0494 % of Cmp 1a and 2.8 % of Cmp 1a and -5.43 % of Cmp 1a and 8 % of Cmp 1a and 5.52 % of Cmp 1a | -0.83 % of Cmp 1a and 7.38 % of Cmp 1a and -0.358 % of Cmp 1a and 15 % of Cmp 1a and 4 % of Cmp 1a | 3.55 % of Cmp 1a and 3 % of Cmp 1a and -1.51 % of Cmp 1a and 6 % of Cmp 1a and 3.35 % of Cmp 1a | 2 % of Cmp 1a and 1.41 % of Cmp 1a and 6 % of Cmp 1a and 4 % of Cmp 1a and 3 % of Cmp 1a | -0.598 % of Carbachol and 5 % of Carbachol and 4.73 % of Carbachol | 5.33 % of Cmp 1a and 17 % of Cmp 1a and -8 % of Cmp 1a | fold decrease in potency relative to a similar phenyl substituted compound (1.3) ([1]; Ca2+ mobilization EC50): 4- to 16 fold
3 | – | – | C[C@H](NC(=O)c1ccc(Cn2cc(Cl)cn2)o1)c1ccccc1 [Compound 8, C[C@H](NC(=O)C1=CC=C(CN2C=C(Cl)C=N2)O1)C=3C=CC=CC3] | – | – | – | – | – | – | – | – | – | – | – | – | – | Ca2+ signal (% of Cmp 1a) ([1]; 0.1 µM, individual replicates (Supplementary Figure 3)): -2.0 % of Cmp 1a and -2.7 % of Cmp 1a; Ca2+ signal (% of Cmp 1a) ([1]; 1 µM, individual replicates (Supplementary Figure 3)): 3.0 % of Cmp 1a and 3.4 % of Cmp 1a; Ca2+ signal (% of Cmp 1a) ([1]; 10 µM, individual replicates (Supplementary Figure 3)): 24.4 % of Cmp 1a and 22.7 % of Cmp 1a; Ca2+ signal (% of Cmp 1a) ([1]; Agonist mode, individual replicates (Supplementary Figure 1)): 47 % of Cmp 1a and 45 % of Cmp 1a and 51 % of Cmp 1a; Ca2+ signal (% of Cmp 1a) ([1]; primary screen, 10 µM compound, agonist mode, three columns = independent experiments): 47 % of Cmp 1a and 45 % of Cmp 1a and 51 % of Cmp 1a; Ca2+ signal (% of Carbachol) ([2]; individual replicates (Supplementary Figure 2)): -17 % of Carbachol and 6 % of Carbachol; Ca2+ signal (% of Cmp 1a) ([3]; individual replicates (Supplementary Figure 1)): 48.2832 % of Cmp 1a and 57.355 % of Cmp 1a and 45.2011 % of Cmp 1a
